We go through eleven compounds from patent publication US20260183275A1, “SUBSTITUTED QUINOLONE COMPOUNDS USEFUL AS INHIBITORS OF TLR9” (Bristol-Myers Squibb Company, priority 2022, published 2026).

What all share (type): cell-based
One assay concerns the target T1, human TLR7 (Homo sapiens, UniProt Q9NYK1).
T1 construct: host or cells: HEK-Blue cells
T1 sequence (Q9NYK1 27-1049): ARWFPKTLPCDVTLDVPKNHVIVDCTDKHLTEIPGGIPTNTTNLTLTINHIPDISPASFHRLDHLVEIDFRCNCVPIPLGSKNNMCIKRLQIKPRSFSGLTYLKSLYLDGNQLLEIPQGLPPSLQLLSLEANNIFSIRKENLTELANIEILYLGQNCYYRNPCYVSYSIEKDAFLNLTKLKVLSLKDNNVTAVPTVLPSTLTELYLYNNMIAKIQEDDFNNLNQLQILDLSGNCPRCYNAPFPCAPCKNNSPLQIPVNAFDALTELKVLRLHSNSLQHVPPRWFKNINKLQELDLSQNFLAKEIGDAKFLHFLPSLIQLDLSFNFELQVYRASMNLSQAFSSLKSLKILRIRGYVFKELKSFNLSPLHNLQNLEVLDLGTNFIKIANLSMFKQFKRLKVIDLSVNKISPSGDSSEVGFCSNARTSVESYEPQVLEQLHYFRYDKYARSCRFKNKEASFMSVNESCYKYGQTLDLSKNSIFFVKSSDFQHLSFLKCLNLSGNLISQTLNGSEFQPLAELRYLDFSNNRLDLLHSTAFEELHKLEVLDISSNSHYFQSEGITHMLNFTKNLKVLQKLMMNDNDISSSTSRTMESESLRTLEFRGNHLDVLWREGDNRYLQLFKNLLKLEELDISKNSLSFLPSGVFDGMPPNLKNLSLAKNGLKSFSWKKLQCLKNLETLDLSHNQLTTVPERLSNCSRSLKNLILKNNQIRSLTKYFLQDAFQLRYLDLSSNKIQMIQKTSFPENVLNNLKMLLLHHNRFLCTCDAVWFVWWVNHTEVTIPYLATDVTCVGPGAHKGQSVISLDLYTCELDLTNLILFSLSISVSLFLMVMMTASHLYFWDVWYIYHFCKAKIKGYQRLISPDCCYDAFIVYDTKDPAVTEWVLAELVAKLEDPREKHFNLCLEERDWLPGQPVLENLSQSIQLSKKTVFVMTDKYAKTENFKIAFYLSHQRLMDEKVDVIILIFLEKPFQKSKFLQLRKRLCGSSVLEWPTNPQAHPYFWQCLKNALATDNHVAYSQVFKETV
Kind of assay: TLR7 inhibition reporter assay (HEK-Blue cells, SEAP reporter). Conditions: HEK-Blue cells overexpressing human TLR7; stimulated with gardiquimod 7.5 μM; SEAP read after 22 hour; dose range 0.05 nM-50 μM. Here is the method:
(§1) HEK-Blue™-cells (Invivogen) overexpressing human TLR7, TLR8 or TLR9 receptors were used for screening inhibitors of these receptors using an inducible SEAP (secreted embryonic alkaline phosphatase) reporter gene under the control of the IFN-β minimal promoter fused to five NF-κB and AP-1-binding sites. Briefly, cells are seeded into Greiner 384 well plates (15000 cells per well for TLR7, 20,000 for TLR8 and 25,000 for TLR9) and then treated with test compounds in DMSO to yield a final dose response concentration range of 0.05 nM-50 μM. After a 30 minute compound pre-treatment at room temperature, the cells are then stimulated with a TLR7 ligand (gardiquimod at a final concentration of 7.5 μM), TLR8 ligand (R848 at a final concentration of 15.9 μM) or TLR9 ligand (ODN2006 at a final concentration of 5 nM) to activate NF-κB and AP-1 which induce the production of SEAP. After a 22 hour incubation at 37° C., 5% CO2, SEAP levels are determined with the addition of HEK-Blue™ Detection reagent (Invivogen), a cell culture medium that allows for detection of SEAP, according to manufacturer's specifications. The percent inhibition is determined as the % reduction in the HEK-Blue signal present in wells treated with agonist plus DMSO alone compared to wells treated with a known inhibitor.
A general note: In a reporter assay the amount or activity of a reporter protein is the signal.

The target in another assay is T2, human TLR9 (Homo sapiens, UniProt Q9NR96).
T2 construct: host or cells: HEK-Blue cells
T2 sequence (Q9NR96 26-1032): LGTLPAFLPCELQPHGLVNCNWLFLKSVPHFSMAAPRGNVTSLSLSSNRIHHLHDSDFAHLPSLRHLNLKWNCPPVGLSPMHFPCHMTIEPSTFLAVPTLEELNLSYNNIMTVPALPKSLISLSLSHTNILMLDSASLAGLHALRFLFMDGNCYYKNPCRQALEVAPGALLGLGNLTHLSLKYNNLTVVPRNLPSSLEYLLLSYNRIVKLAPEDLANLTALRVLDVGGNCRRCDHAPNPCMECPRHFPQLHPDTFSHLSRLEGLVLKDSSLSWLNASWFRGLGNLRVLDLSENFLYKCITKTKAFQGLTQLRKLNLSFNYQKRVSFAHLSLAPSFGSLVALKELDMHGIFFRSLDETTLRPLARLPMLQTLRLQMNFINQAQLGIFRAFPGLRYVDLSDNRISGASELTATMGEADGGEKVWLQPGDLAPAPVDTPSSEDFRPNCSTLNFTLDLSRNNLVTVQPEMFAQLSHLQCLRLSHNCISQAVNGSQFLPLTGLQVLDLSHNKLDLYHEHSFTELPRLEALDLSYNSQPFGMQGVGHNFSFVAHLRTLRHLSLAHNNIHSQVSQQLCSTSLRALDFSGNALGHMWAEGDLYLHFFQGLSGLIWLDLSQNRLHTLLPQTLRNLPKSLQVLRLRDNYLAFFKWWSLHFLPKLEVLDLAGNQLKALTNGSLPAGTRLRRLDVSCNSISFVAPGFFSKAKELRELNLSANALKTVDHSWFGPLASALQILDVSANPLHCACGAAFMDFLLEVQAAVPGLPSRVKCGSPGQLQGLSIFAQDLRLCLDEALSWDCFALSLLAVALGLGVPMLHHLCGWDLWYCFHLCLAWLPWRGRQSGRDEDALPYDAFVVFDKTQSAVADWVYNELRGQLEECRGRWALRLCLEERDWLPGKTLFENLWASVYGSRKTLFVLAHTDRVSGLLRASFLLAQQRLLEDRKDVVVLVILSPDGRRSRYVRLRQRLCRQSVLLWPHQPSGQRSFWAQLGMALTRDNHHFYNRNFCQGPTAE
Put plainly: TLR9 inhibition reporter assay (HEK-Blue cells, SEAP reporter). As to conditions: HEK-Blue cells overexpressing human TLR9; stimulated with ODN2006 5 nM; SEAP read after 22 hour; dose range 0.05 nM-50 μM. As for the experimental part: as §1

The target in the next assay is T3, human TLR8 (Homo sapiens, UniProt Q9NR97).
T3 construct: host or cells: HEK-Blue cells
T3 sequence (Q9NR97 27-1041): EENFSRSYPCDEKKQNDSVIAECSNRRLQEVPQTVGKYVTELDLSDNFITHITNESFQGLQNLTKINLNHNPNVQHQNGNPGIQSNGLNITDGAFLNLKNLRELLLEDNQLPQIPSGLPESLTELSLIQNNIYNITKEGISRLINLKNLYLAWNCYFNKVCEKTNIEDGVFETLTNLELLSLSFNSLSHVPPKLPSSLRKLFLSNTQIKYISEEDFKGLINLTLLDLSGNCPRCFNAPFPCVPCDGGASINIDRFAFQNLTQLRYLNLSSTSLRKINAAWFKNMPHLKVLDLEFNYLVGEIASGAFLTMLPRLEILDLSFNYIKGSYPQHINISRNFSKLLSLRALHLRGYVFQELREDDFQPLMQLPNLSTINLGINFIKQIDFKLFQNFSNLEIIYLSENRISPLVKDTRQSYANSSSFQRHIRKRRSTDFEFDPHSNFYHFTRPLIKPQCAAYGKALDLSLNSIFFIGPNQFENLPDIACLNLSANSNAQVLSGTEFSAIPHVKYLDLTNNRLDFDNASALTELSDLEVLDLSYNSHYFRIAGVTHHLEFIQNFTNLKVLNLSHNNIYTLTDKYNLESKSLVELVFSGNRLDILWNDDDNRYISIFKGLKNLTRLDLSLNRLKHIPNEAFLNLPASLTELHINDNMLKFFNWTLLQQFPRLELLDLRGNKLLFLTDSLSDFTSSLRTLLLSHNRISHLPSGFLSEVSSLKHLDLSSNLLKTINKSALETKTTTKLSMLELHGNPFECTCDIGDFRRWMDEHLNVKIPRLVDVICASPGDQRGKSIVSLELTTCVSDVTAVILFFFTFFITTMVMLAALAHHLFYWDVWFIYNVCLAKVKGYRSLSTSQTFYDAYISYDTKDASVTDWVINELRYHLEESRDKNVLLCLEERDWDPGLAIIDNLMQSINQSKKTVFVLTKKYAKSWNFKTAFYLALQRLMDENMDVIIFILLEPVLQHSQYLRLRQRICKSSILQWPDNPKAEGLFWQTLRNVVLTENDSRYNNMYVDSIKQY
Kind of assay: TLR8 inhibition reporter assay (HEK-Blue cells, SEAP reporter). Conditions: HEK-Blue cells overexpressing human TLR8; stimulated with R848 15.9 μM; SEAP read after 22 hour; dose range 0.05 nM-50 μM. Here is the method:
as §1

pIC50: −log10 of the molar value.

Usually pIC50 stands for −log10 of the IC50, conventionally taken in molar units. Higher therefore signals a small IC50. For the compound `CC(C)N1CCN(c2ccc(-c3ccc4[nH]c(=O)c(-c5ccc(C(=O)N(C)C6COC6)cc5)cc4c3)cc2)CC1` [Example 13, N-methyl-N-(oxetan-3-yl)-4-(2-oxo-6-{4-[4-(propan-2-yl)piperazin-1-yl]phenyl}-1,2-dihydroquinolin-3-yl)benzamide], the pIC50 is 5.31 on human TLR7, 6.91 on human TLR9 and not above 4.30 at human TLR8.

With `COC(=O)c1ccc(-c2cc3cc(-c4ccc(N5CCN(C(C)C)CC5)cc4)ccc3[nH]c2=O)cc1` [Example 28, methyl 4-(2-oxo-6-{4-[4-(propan-2-yl)piperazin-1-yl]phenyl}-1,2-dihydroquinolin-3-yl)benzoate], the pIC50 at human TLR7 is not above 4.30; against human TLR9 it was 5.64; at human TLR8 it was not above 4.30.

On to `CC(C)N1CCN(c2ccc(-c3ccc4[nH]c(=O)c(-c5cccnc5)cc4c3)cc2)CC1` [Example 32, 6-{4-[4-(propan-2-yl)piperazin-1-yl]phenyl}-3-(pyridin-3-yl)-1,2-dihydroquinolin-2-one], for which the pIC50 is 6.38 on human TLR7, 6.53 on human TLR9 and 7.77 against human TLR8.

As to `CC(C)N1CCC(c2ccc(-c3ccc4c(c3)cc(-c3ccc(S(C)(=O)=O)cc3)c(=O)n4CCCO)cc2)CC1` [Example 82, 1-(3-hydroxypropyl)-3-(4-methanesulfonylphenyl)-6-{4-[1-(propan-2-yl)piperidin-4-yl]phenyl}-1,2-dihydroquinolin-2-one], the pIC50 at human TLR7 is 5.26; on human TLR9 it was 6.51; against human TLR8, 4.72.

With `CC(C)N1CCN(c2ccc(-c3ccc4[nH]c(=O)c(-c5ccc(C#N)cc5)cc4c3)cc2)CC1` [Example 12, 4-(2-oxo-6-{4-[4-(propan-2-yl)piperazin-1-yl]phenyl}-1,2-dihydroquinolin-3-yl)benzonitrile], the pIC50 was 5.52 at human TLR7, 6.92 at human TLR9 and 5.12 against human TLR8.

On to `CC(C)N1CCN(c2ccc(-c3ccc4[nH]c(=O)c(-c5ccccc5)cc4c3)cc2)CC1` [Example 18, 3-phenyl-6-{4-[4-(propan-2-yl)piperazin-1-yl]phenyl}-1,2-dihydroquinolin-2-one], for which the pIC50 at human TLR7 was 4.78; on human TLR9 it was 6.72; at human TLR8, 4.79.

For `CC(C)N1CCN(c2ccc(-c3ccc4[nH]c(=O)c(-c5ccc(N(C)C)cc5)cc4c3)cc2)CC1` [Example 9, 3-[4-(dimethylamino)phenyl]-6-{4-[4-(propan-2-yl)piperazin-1-yl]phenyl}-1,2-dihydroquinolin-2-one], the pIC50 is 5.51 against human TLR7, 7.02 on human TLR9 and 4.86 at human TLR8.

Regarding `CC(C)N1CCC(c2ccc(-c3ccc4[nH]c(=O)c(-c5cccc(NS(C)(=O)=O)c5)cc4c3)cc2)CC1` [Example 67, N-[3-(2-oxo-6-{4-[1-(propan-2-yl)piperidin-4-yl]phenyl}-1,2-dihydroquinolin-3-yl)phenyl]methanesulfonamide], the figures for the pIC50 at human TLR7, on human TLR9 and at human TLR8 were 6.09, 7.17 and not above 4.30, respectively.

Regarding `CC(C)N1CCN(c2ccc(-c3ccc4[nH]c(=O)c(-c5ccccc5F)cc4c3)cc2)CC1` [Example 42, 3-(2-fluorophenyl)-6-{4-[4-(propan-2-yl)piperazin-1-yl]phenyl}-1,2-dihydroquinolin-2-one], the negative logarithm of the IC50 (pIC50) is 5.67 against human TLR7, 6.37 at human TLR9 and 5.61 on human TLR8.

Consider `COc1ccc(-c2cc3cc(-c4ccc(N5CCN(C(C)C)CC5)cc4)ccc3[nH]c2=O)cc1OC` [Example 43, 3-(3,4-dimethoxyphenyl)-6-{4-[4-(propan-2-yl)piperazin-1-yl]phenyl}-1,2-dihydroquinolin-2-one], for which the pIC50 against human TLR7 is 5.30; against human TLR9, 6.26; against human TLR8, not above 4.30.

For the compound `CC(C)N1CCN(c2ccc(-c3ccc4[nH]c(=O)c(-c5ccc(N6CC[C@@H](O)C6)cc5)cc4c3)cc2)CC1` [Example 61, 3-{4-[(3R)-3-hydroxypyrrolidin-1-yl]phenyl}-6-{4-[4-(propan-2-yl)piperazin-1-yl]phenyl}-1,2-dihydroquinolin-2-one], the pIC50 on human TLR7 is not above 4.30; on human TLR9 it was 5.78; on human TLR8, not above 4.30.
